The text below walks through data of patent publication US20250228824A1, “COMPOSITIONS AND METHODS FOR INHIBITION OF ITO AS TREATMENT FOR THE J WAVE SYNDROMES AND HYPOTHERMIA” (Lankenau Institute for Medical Research, priority 2021, published 2025).

SMILES strings stand for the structures.

One data set addresses T1, Nav1.5 (peak INa) (Homo sapiens, UniProt Q14524).
T1 construct: expressed in transfected cells; host or cells: HEK cells, transfected with Lipofectamine 2000
Put plainly: Automated patch clamp (Qube-384) of INa in HEK cells transfected with SCN5A+SCN1B. The class given is cell-based. The conditions noted are these: human, pH 7.4; 50 μM; holding potential −90 mV. As to the method: (§1) HEK cells transiently transfected with wild-type SCN5A (α subunit—Nav1.5) together with SCN1B (β1 subunit) using Lipofectamine 2000 were used to assess the effect of AR-787 on the cardiac sodium channel current (INa). All cells were incubated at 37° C./5% CO2. All cell culture reagents were purchased from Thermo Fisher Scientific (Waltham, MA).
(§2) The effect of AR-787 on cardiac sodium channel current was evaluated in HEK cells co-transfected with SCN5A and SCN1B. INa was measured in the whole-cell configuration using a Qube-384 (Sophion A/S, Copenhagen, Denmark) automated voltage clamp system. A flipped Na^+ gradient was used where the extracellular solution contained (in mM): 125 choline chloride, 1 NaCl, 5 KCl, 2 CaCl2, 1 MgCl2, 10 HEPES/NaOH, pH 7.4 (adjusted with NaOH), and the intracellular solution contained (in mM): 115 NaF, 15 CsCl2, 5 CsF, 3 Na2ATP, 0.3 Na2GTP, 2 MgCl2, 0.1 CaCl2, 10 EGTA, and 10 HEPES/CsOH, pH 7.2 (adjusted with NaOH). The currents were low-pass-filtered at 5 kHz and recorded at 25 kHz sampling frequency. Series resistance compensation was applied at 100%, and leak subtraction was enabled. Experiments were performed at room temperature (27° C.). Appropriate filters for cell membrane resistance (typically >500 MΩ), series resistance (<10 MΩ), and Nav current magnitude (>500 pA at a test pulse from a resting holding potential of −120 mV) were routinely applied to exclude poor quality cells. Vehicle (0.5% DMSO) controls were run on each plate to enable correction for any compound independent decrease of currents over time.
(§3) We used a double voltage-pulse protocol designed specifically to assess whether the compound is a potentiator, inhibitor, or both. The protocol assesses these parameters at both rest and partially inactivated holding potentials. Currents were assessed by a test pulse of 0 mV from a holding potential at rest (−120 mV) before preconditioning channels to their appropriate mid-potential (V1/2) values (NaV1.5 V1/2=−90 mV) for 10 s. Peak current, time constant of inactivation (τ inactivation) and persistent current were measured.
(§4) Time constants (τ) for fast inactivation onset were derived by fitting a single exponential function to the decay of current obtained from the depolarizing test pulse following a holding potential of −120 mV.
(§5) where I is current amplitude, Iss is the plateau amplitude, α is the amplitude at time 0 for time constant τ, and t is time. Persistent sodium current was measured during a 10 ms test pulse from −120 mV to 0 mV. It was calculated as a percentage of peak sodium current at 5 ms.
Background: In patch-clamp work, channel activity is measured electrically.

For the next data set, the target named is T2, Nav1.5 (Homo sapiens, UniProt Q14524).
T2 construct: expressed in transfected cells; host or cells: HEK cells, transfected with Lipofectamine 2000
The description is as above. The class given is cell-based. On the procedure:
as §1, §2, §3, §4, §5

[1] abbreviates: 50 μM, holding potential −120 mV.
[2] abbreviates: 50 μM, mid-voltage holding potential (NaV1.5 V1/2 = −90 mV).

T2 sequence (Q14524 whole entry): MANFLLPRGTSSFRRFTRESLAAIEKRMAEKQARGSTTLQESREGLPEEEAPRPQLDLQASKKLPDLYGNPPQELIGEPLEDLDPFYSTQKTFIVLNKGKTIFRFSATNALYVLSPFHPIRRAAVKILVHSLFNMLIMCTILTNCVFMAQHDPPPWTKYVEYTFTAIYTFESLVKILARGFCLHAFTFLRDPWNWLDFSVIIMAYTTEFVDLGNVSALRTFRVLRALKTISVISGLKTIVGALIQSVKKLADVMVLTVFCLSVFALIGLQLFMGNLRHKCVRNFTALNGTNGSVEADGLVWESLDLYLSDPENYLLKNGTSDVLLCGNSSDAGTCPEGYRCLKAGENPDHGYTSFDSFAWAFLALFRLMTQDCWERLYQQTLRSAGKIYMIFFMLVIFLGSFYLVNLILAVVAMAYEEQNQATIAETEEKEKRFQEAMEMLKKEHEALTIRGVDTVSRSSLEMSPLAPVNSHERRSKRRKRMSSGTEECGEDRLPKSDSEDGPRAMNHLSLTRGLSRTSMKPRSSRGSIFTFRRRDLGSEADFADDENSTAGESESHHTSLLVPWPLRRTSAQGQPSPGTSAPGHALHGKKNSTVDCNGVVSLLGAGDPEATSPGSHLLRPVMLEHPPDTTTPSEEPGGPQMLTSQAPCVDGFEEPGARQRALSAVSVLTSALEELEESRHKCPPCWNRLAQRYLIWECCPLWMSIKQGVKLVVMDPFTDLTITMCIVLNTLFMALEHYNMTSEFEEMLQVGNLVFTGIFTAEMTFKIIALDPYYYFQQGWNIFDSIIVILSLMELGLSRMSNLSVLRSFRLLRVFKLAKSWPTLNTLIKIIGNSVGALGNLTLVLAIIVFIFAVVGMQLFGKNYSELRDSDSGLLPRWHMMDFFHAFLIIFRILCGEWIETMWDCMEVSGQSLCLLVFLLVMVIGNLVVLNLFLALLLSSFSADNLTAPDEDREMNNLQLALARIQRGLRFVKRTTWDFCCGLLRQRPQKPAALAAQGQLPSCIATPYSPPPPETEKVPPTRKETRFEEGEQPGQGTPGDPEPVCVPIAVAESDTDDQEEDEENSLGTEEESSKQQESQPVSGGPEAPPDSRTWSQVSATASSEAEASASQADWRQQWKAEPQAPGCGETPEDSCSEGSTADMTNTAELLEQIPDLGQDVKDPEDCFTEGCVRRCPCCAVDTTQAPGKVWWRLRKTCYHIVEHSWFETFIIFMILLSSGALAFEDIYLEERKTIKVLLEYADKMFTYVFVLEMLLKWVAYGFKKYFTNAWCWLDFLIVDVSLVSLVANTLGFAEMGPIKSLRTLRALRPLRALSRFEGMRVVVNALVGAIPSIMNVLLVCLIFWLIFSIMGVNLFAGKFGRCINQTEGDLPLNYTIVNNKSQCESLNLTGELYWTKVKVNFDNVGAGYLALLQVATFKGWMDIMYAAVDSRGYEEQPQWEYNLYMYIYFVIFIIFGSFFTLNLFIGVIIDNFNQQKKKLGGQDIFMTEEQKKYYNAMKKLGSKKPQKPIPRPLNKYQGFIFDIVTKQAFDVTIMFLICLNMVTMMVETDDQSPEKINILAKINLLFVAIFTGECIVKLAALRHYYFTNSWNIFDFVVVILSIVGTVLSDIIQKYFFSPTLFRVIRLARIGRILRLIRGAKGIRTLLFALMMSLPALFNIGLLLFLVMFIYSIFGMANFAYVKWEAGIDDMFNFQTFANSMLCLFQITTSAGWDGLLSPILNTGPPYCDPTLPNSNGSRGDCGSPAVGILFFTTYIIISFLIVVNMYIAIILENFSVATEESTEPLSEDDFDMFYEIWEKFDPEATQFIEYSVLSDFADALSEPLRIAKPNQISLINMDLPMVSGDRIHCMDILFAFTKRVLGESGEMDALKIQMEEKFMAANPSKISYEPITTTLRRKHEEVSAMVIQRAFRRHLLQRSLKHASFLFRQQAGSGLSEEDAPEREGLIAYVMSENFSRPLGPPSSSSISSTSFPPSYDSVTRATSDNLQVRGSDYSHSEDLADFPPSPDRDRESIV
T2 sequence (Q07699 19-218 partner): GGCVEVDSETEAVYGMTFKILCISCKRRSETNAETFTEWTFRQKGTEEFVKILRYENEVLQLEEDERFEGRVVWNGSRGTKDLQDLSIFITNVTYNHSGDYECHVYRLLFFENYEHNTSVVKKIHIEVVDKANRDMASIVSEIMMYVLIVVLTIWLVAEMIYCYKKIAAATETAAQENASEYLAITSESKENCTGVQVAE
T1 sequence (Q14524 whole entry): as the sequence (Q14524 whole entry) above
T1 sequence (Q07699 19-218 partner): as the sequence (Q07699 19-218 partner) above

On to `Cc1nc(-n2cccc2)sc1C(=O)N=c1[nH]c2ccccc2[nH]1` [AR-787, N-(1H-benzimidazol-2-yl)-4-methyl-2-pyrrol-1-yl-thiazole-5-carboxamide], for which the inhibition – broadly, the drop in the measured response relative to a control, in per cent – at 50 µM at Nav1.5 (peak INa) came out at 80%. The “Normalized AUC” value on Nav1.5 (50 μM) is reported as 1.03 ± 0.06. The “reduction of INa” value on Nav1.5 (50 μM, 0 mV test pulse from holding potential −120 mV) is listed as around 32%. The “deceleration of fast inactivation kinetics” value at Nav1.5 (50 μM, holding potential −90 mV) is reported as “this effect was abolished”. Moreover, at Nav1.5 (setting [1]), the “Normalized Inhibition (−120 mV)” value came out at 0.32 ± 0.03, the “Normalized τinactivation (−120 mV)” value amounted to 1.45 ± 0.07 and the “deceleration of fast inactivation kinetics” value was around 1.5 fold. At Nav1.5 (setting [2]), the “Normalized Inhibition (−65 mV and −90 mV)” value came out at 0.78 ± 0.02; the “Normalized τinactivation (−65 mV and −90 mV)” value is listed as 1.11 ± 0.10. Moreover, the “Normalized Persistent Current (5 ms)” value on Nav1.5 (50 μM, percentage of peak sodium current at 5 ms, from −120 mV to 0 mV) came to 10.44 ± 3.30. The “increase of late INa (persistent sodium current, percent of peak current)” value at Nav1.5 (at 5 ms of a 10 ms depolarization to 0 mV from −120 mV) is around 10%.
